In this assay the test system is THP-1 cells. Description: Inhibition of heme-stimulated thermogenesis (FPT) in THP-1 cells. It is filed as cell-based, human. To be noted: 4 μM thapsigargin 2 hours, then 40 μM heme one hour. How it is done:
FIGS. 5A-5F show MFSD7C and heme regulate thermogenesis through SERCA2b in THP-1 cells. […] 30 hours later, MG132 was added into half of the cells and the other half was not treated. Another 35 hours later, some cells were treated with 40 μM heme for 1 hour before lysis. Cell lysates were immunoprecipitated with anti-FLAG antibody, and eluted, followed by anti-HA immunoprecipitation and elution. Total cell lysate and elute were subjected to Western blotting and probed with anti-SERCA2b or anti-MFSD7C antibodies. Shown are representative data from one of three experiments. […] 24 hrs later, cells were either not treated or treated with 10 μM MG132 for either 6 or 12 hours. The cells were lysed and subjected to FLAG pull-down and blotted with anti-MFSD7C, anti-SERCA2b and anti-ubiquitin antibodies. Shown are representative data from one of three experiments. […] Parental THP-1 cells were either not treated or treated with heme before lysis. Shown are representative data from one of four experiments. […]
FIGS. 16A-16F show Co-localization of MFSD7C and SERCA2b. […] Co-localization between MFSD7C and SERCA2b was quantified. […] P-values were calculated using unpaired t-test (***p<0.05). […]
In the second approach, we used fluorescent polymeric thermometer (FPT), which we synthesized in-house (see above). […] Then the fluorescence intensities were determined by a flow cytometer.

Each structure is given as a SMILES string.

Turning to `C/C=C(/C)C(=O)O[C@H]1C(C)=C2[C@H]([C@@H]1OC(=O)CCCCCCC)[C@@](C)(OC(C)=O)C[C@H](OC(=O)CCC)[C@@]1(O)[C@H]2OC(=O)[C@@]1(C)O` [thapsigargin], the heme-stimulated thermogenesis result was “mostly inhibited”.

For the origin of these results see patent US20230313199A1, “TARGET FOR MODULATING BODY MASS” (Massachusetts Institute of Technology, priority 2020, published 2023).
